Experimental data as given in patent US6703388B2, “Nitrogen-containing tricyclic compounds and drugs containing the same” (Eisai Co., Ltd., priority 1996, dated 2004).
Like-named read-outs stand apart in the source and are kept apart here.

Key:
RBL-2H3 cells = test: Inhibition of serotonin liberation from IgE-sensitized RBL-2H3 cells after antigen stimulation; format: cell-based, rat
From the text: IgE-sensitized RBL-2H3 cells (i.e., a cell line originating in rat cells) release and produce not only histamine and serotonin but also cytokines such as TNF α and prostaglandins which are inflammatory mediators after stimulation with IgE sepecific antibody. In this experimental system, inhibitory effects on various mediators release were examined by using serotonin as an indication.
The cells were beforehand labeled with [^3H]-labeled serotonin and, at the same time, sensitized with the IgE antibody. After incubating with the compounds of the present invention, the cells were stimulated with the specific antigen. Then the inhibitory activity of each compound was calculated from the amount of the [^3H]-labeled serotonin thus liberated into the medium and the amount of [^3H]-labeled serotonin liberated when no compound of the present invention was added.

human basophils = test: Inhibition of mediator (histamine, peptide leukotriene) liberation from human basophils stimulated with mite antigen; format: cell-based; conditions: enzyme immunoassay
Experimental: 6 ml of 6% dextran (for separating leukocytes, having a high molecular weight) was added to 20 ml of heparinized blood. After stirring well, the resulting mixture was allowed to stand at 37° C. for 30 min and thus erythrocytes were precipitated. The upper layer was taken up and phosphate buffered saline (D-PBS) was added thereto followed by centrifugation at 185 g for 8 minutes to give a crude leukocyte fraction. These cells were subjected to hypotonic hematolysis and then suspended in D-PBS(+) containing 0.1%-BSA. The resulting suspension was used in the subsequent experiment as the leukocyte fraction containing basophils. 0.4 ml of this cell suspension was preliminarily heated to 37° C. for 5 min and then 0.05 ml of a specimen solution was added thereto followed by a pretreatment at 37° C. for 15 min. Next, 0.05 ml of a mite antigen solution was added thereto to induce an antigen-antibody reaction. After 10 min, the reaction was ceased by ice-cooling. Then the reaction mixture was centrifuged at 185 g for 10 min and histamine and peptide leukotrienes in the resulting supernatant were determined by using enzyme immunoassay kits. From the results of the assay, the activities of the acridone derivatives of inhibiting the liberation of histamine and peptide leukotriene were determined.

[1] = Rattus norvegicus, [3H]-serotonin release, IgE-sensitized RBL-2H3 cells, antigen stimulation, read-out: IC50 (μM) in serotonin liberation from RBL-2H3 cells
[2] = histamine, read-out: IC50 (μM) in mediator liberation from human basophils: histamine
[3] = peptide leukotriene, read-out: IC50 (μM) in mediator liberation from human basophils: leukotriene
[4] = Rattus norvegicus, RBL-2H3, read-out: IC50 (μM) in serotonin liberation from RBL-2H3 cells

| Compound | IC50 (RBL-2H3 cells; [1]) [µM] | also measured |
| --- | --- | --- |
| Cc1ccc2c(c1C)N(CCCNCc1ccccc1O)c1ccccc1[S+]2[O-] (centres unmarked) [Example 23] | 2 | IC50 (human basophils; [2]): 10 to 30 µM; IC50 (human basophils; [3]): 10 to 30 µM |
| Cc1ccc2c(c1C)N(CCCNCc1cccc(O)c1)c1ccccc1[S+]2[O-] (centres unmarked) [Example 24] | 3 | IC50 (human basophils; [2]): 10 to 30 µM; IC50 (human basophils; [3]): 10 to 30 µM |
| Cc1ccc2c(c1C)N(CCCNCc1ccc(O)cc1)c1ccccc1[S+]2[O-] (centres unmarked) [Example 25] | 3 | IC50 (human basophils; [2]): 30 µM; IC50 (human basophils; [3]): 10 to 30 µM |
| Cc1ccc2c(c1C)N(CCCNCc1ccccc1)c1cc(-c3nn[nH]n3)ccc1[S+]2[O-] (centres unmarked) [Example 98] | 0.5 |  |
| COc1cc2c(c(C)c1C)N(CCCNCc1ccccc1)c1ccccc1[S+]2[O-] (centres unmarked) [Example 99] | 5 |  |
| COc1ccsc1CNCCCN1c2ccccc2[S+]([O-])c2c(C)cc(C)c(C)c21 (centres unmarked) [Example 101] | 5 |  |
| Cc1ccc2c(c1C)N(CCCN1CCOCC1)c1ccccc1[S+]2[O-] (centres unmarked) [Example 103, 1,2-Dimethyl-10-[3-(4-morpholino)propyl]phenothiazine-5Oxide] | < 3 |  |
| Cc1ccc2c(c1C)N(CCCN1CCC(O)CC1)c1ccccc1[S+]2[O-] (centres unmarked) [Example 106] | 2 |  |
| Cc1ccc2c(c1C)N(CCCN1CCC(N(C)C)CC1)c1ccccc1[S+]2[O-] (centres unmarked) [Example 107] | 2 |  |
| Cc1ccc2c(c1C)N(CCCN(CC(=O)O)Cc1ccccc1)c1ccccc1[S+]2[O-] (centres unmarked) [Example 109] | 3 |  |
| Cc1ccc2c(c1C)N(CCCN1CCN(Cc3ccccc3)C(C(=O)O)C1)c1ccccc1[S+]2[O-] (centres unmarked) [Example 110] | 1 |  |
| Cc1ccc2c(c1C)N(CCCN1CCN(C(C(=O)O)c3ccccc3)CC1)c1ccccc1[S+]2[O-] (centres unmarked) [Example 111] | 2 |  |
| Cc1ccc2c(c1C)N(CCCN1CCN(Cc3ccccn3)CC1)c1ccccc1[S+]2[O-] (centres unmarked) [Example 112] | 1 |  |
| Cc1ccc2c(c1C)N(CCCNc1ccccc1O)c1ccccc1[S+]2[O-] (centres unmarked) [Example 116] | 10 |  |
| Cc1ccc2c(c1C)N(CCCN1CCN(C(CO)c3ccccc3)CC1)c1ccccc1[S+]2[O-] (centres unmarked) [Example 117] | 2 |  |
| Cc1ccc2c(c1C)N(CCCNc1nc[nH]n1)c1ccccc1[S+]2[O-] (centres unmarked) [Example 118] | 10 |  |
| Cc1ccc2c(c1C)N(CCCn1cnc(N)n1)c1ccccc1[S+]2[O-] (centres unmarked) [Example 119] | 6 |  |
| Cc1ccc2c(c1C)N(CCCNCc1nccs1)c1ccccc1[S+]2[O-] (centres unmarked) [Example 120] | 3 |  |
| Cc1ccc2c(c1C)N(Cc1ccc(CN3CCC(C(=O)O)CC3)cc1)c1ccccc1[S+]2[O-] (centres unmarked) [Example 121] | 1 |  |
| C#CCNCCCN1c2ccccc2[S+]([O-])c2ccc(C)c(C)c21 (centres unmarked) [Example 126] | 3 |  |
| Cc1ccc2c(c1C)N(CCCNCC#N)c1ccccc1[S+]2[O-] (centres unmarked) [Example 130] | 3 |  |
| Cc1ccc2c(c1C)N(CCCN(CC#N)CC#N)c1ccccc1[S+]2[O-] (centres unmarked) [Example 131] | 3 |  |
| Cc1ccc2c(c1C)N(CCCNC(C(=O)O)c1ccccc1)c1ccccc1[S+]2[O-] (centres unmarked) [Example 133] | 1 |  |

| Compound | IC50 (RBL-2H3 cells; [1]) [µM] | also measured |
| --- | --- | --- |
| Cc1ccc2c(c1C)N(CCCN(CC(=O)O)Cc1ccccc1O)c1ccccc1[S+]2[O-] (centres unmarked) [Example 135] | 2 |  |
| Cc1ccc2c(c1C)N(CCNCc1cc(C)c(O)c(C)c1)c1ccccc1[S+]2[O-] (centres unmarked) [Example 148] | 8 |  |
| COc1cc(CNCCN2c3ccccc3[S+]([O-])c3ccc(C)c(C)c32)cc(OC)c1O (centres unmarked) [Example 149] | 8 |  |
| Cc1ccc2c(c1C)N(CCNCc1ccc(Cl)c(O)c1Cl)c1ccccc1[S+]2[O-] (centres unmarked) [Example 153] | 6 |  |
| COCOc1cccnc1CNCCN1c2ccccc2[S+]([O-])c2ccc(C)c(C)c21 (centres unmarked) [Example 160] | 2 |  |
| Cc1ccc2c(c1C)N(CCCN(C)Cc1cc(Cl)cc(Cl)c1O)c1ccccc1[S+]2[O-] (centres unmarked) [Example 172] | 3 |  |
| Cc1ccc2c(c1C)N(CCCN(C)Cc1ccccc1O)c1cc(Cl)ccc1[S+]2[O-] (centres unmarked) [Example 186] | 10 |  |
| Cc1ccc2c(c1C)N(CCN1CCN(Cc3ccccc3)CC1)c1ccccc1[S+]2[O-] (centres unmarked) [Example 191, 1,2-Dimethyl-10-[2-(4-benzylpiperazin-1-yl)ethyl]-phenothiazine-5-oxide] | 3 |  |
| Cc1ccc2c(c1C)N(CCN1CCC(O)(c3ccccc3)CC1)c1ccccc1[S+]2[O-] (centres unmarked) [Example 192] |  | IC50 (RBL-2H3 cells; [4]): 5 µM |
| Cc1ccc2c(c1C)N(CCNc1ccccc1O)c1ccccc1[S+]2[O-] (centres unmarked) [Example 194] | 10 |  |
| Cc1ccc2c(c1C)N(CCCN)c1cc(Br)ccc1S2(=O)=O [Example 197] | 8 |  |
| Cc1ccc2c(c1C)N(CCN1CCC(O)(c3ccccc3)CC1)c1ccccc1S2(=O)=O [Example 199] |  | IC50 (RBL-2H3 cells; [4]): 10 µM |
| C=C1c2ccccc2N(CCCNCc2ccccc2)c2c1ccc(C)c2C [Example 206, 3,4-Dimethyl-9-methylene-10-(3-benzylaminopropyl)acridan] | 15 |  |
| CCC/C=C1/c2ccccc2N(CCCNCc2ccccc2)c2c1ccc(C)c2C [Example 207] | 15 |  |
| CO/N=c1\c2ccccc2n(CCCN)c2c(C)c(C)ccc12 [Example 208, (E,Z)-3,4-Dimethyl-10-(3-aminopropyl)-9-acridoneoxime-O-methyl Ether] |  | IC50 (RBL-2H3 cells; [3H]-serotonin release, IgE-sensitized RBL-2H3 cells, antigen stimulation, read-out: IC50 (μM) in serotonin liberation from RBL-2H3 cells): 3 µM |
| Cc1ccc2c(=NO)c3ccccc3n(CCCN)c2c1C [Example 209] | 15 |  |
| CCCON=c1c2ccccc2n(CCCN)c2c(C)c(C)ccc12 [Example 211] | 10 |  |
| Cc1ccc2c(=NOCCc3ccccn3)c3ccccc3n(CCCN)c2c1C [Example 212] | 6 |  |
| Cc1ccc2c(=NOCC(=O)O)c3ccccc3n(CCCN)c2c1C [Example 215] | 3 |  |
| Cc1ccc2c(=NOCCC(=O)O)c3ccccc3n(CCCN)c2c1C [Example 216] | 3 |  |
| Cc1ccc2c(=NOC(C)C(=O)O)c3ccccc3n(CCCN)c2c1C (centres unmarked) [Example 217] | 2 |  |
| Cc1ccc2c(=NOCc3ccccn3)c3ccccc3n(CCCN)c2c1C [Example 220] | 6 |  |
| Cc1ccc2c(=NOCCCC(=O)N(C)C)c3ccccc3n(CCCN)c2c1C [Example 222] | 10 |  |

| Compound | IC50 (RBL-2H3 cells; [1]) [µM] | also measured |
| --- | --- | --- |
| Cc1ccc2c(=NOC(C)C)c3ccccc3n(CCCN)c2c1C [Example 223] | 10 |  |
| Cc1ccc2c(=NO)c3ccccc3n(CCCNCc3ccccc3)c2c1C [Example 230] | 6 |  |
| CCCON=c1c2ccccc2n(CCCNCc2ccccc2)c2c(C)c(C)ccc12 [Example 232] | 10 |  |
| Cc1ccc2c(=NOCC(=O)O)c3ccccc3n(CCCNCc3ccccc3)c2c1C [Example 234] | < 3 |  |
| CCC(ON=c1c2ccccc2n(CCCNCc2ccccc2)c2c(C)c(C)ccc12)C(=O)O (centres unmarked) [Example 237] | 10 |  |
| Cc1ccc2c(=NOCc3ccccn3)c3ccccc3n(CCCNCc3ccccc3)c2c1C [Example 240] | 5 |  |
| Cc1ccc2c(=NOCCc3ccccn3)c3ccccc3n(CCCNCc3ccccc3)c2c1C [Example 241] | 4 |  |
| Cc1ccc2c(=NOCCCC(=O)O)c3ccccc3n(CCCNCc3ccccc3)c2c1C [Example 242] | 6 |  |
| Cc1ccc2c(=NOC(C)C)c3ccccc3n(CCCNCc3ccccc3)c2c1C [Example 243] | 6 |  |
| Cc1ccc2c(=NOCCC(=O)N(C)C)c3ccccc3n(CCCNCc3ccccc3)c2c1C [Example 244] | 3 |  |
| Cc1ccc2c(=NOCCC(=O)O)c3ccccc3n(CCCNCc3ccccc3O)c2c1C [Example 247] | 10 |  |
| Cc1ccc2c(=NOCC(C)(C)C(=O)O)c3ccccc3n(CCCNCc3ccccc3)c2c1C [Example 248] | 10 |  |
| Cc1ccccc1CNCCCn1c2ccccc2c(=NOCCC(=O)O)c2ccc(C)c(C)c21 [Example 249] | 10 |  |
| Cc1ccc2c(=NOCCC(N)=O)c3ccccc3n(CCCNCc3ccccc3)c2c1C [Example 251] | 5 |  |
| Cc1ccc2c(=NOC(C)C#N)c3ccccc3n(CCCNCc3ccccc3)c2c1C (centres unmarked) [Example 253] | 10 |  |
| Cc1ccc2c(=NOCCC(=O)O)c3ccccc3n(CCCN(C)Cc3ccccc3)c2c1C [Example 254] | 12 |  |
| CCON=c1c2ccccc2n(CCCNC(C)c2ccccc2)c2c(C)c(C)ccc12 (centres unmarked) [Example 255] | 8 |  |
| Cc1ccc2c(c1C)N(CCCN)c1ccccc1N(C)C2=O [Example 257] | 12 |  |
| Cc1ccc2c(c1C)N(CCCN)c1ccccc1C(=O)N2C [Example 258] | 6 |  |
| Cc1ccc2c(c1C)N(CCCNCc1ccccc1)c1ccccc1N(C)C2=O [Example 259] | 4 |  |
| Cc1ccc2c(c1C)N(CCCNCc1ccccc1)c1ccccc1C(=O)N2C [Example 260] | 6 |  |
| COC(=O)Cc1cccc2c1[S+]([O-])c1ccc(C)c(C)c1N2CCCNCc1ccccc1 (centres unmarked) [Example 261] | 10 |  |
